Androgenic activity, Progestational activity and melting point data for 14 compounds are collected here from US20040059140A1, “14(15)-unsaturated 15- and/or 16-substituted androgens with mixed androgen-progrestational profile” (priority 2000, published 2004).

Molecules are shown by their SMILES.

Data set [1] concerns the target T1, human androgen receptor (hAR) (Homo sapiens, UniProt P10275).
T1 construct: expressed in transfected cells; host or cells: CHO (Chinese hamster ovary) cells
T1 sequence (P10275 1-920): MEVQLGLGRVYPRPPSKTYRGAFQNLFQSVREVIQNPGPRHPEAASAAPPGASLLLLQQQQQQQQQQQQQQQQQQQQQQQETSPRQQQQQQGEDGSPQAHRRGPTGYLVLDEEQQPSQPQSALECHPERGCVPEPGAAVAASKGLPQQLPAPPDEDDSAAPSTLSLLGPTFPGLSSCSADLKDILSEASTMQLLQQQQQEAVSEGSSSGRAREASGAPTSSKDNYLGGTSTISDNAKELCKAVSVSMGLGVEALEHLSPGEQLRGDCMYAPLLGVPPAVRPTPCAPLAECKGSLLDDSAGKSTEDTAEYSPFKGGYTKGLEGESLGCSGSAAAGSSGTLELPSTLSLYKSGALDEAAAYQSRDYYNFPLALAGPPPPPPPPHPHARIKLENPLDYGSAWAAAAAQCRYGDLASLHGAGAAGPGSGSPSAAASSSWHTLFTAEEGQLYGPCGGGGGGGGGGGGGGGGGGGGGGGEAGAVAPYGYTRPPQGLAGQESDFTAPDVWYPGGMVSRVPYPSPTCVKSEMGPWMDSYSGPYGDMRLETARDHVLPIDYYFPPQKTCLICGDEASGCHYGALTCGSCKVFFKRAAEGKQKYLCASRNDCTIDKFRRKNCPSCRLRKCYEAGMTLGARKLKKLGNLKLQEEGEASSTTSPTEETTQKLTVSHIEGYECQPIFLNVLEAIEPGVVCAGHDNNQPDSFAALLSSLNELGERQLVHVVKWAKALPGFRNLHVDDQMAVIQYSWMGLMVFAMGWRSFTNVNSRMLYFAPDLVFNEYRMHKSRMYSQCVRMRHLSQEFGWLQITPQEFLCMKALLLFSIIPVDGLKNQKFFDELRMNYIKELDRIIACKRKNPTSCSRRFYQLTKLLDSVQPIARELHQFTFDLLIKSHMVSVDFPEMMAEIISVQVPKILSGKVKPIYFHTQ
The experiment in a line: Androgenic activity (transactivation in CHO cells transfected with hAR, MMTV-luciferase, compared with 5α-dihydrotestosterone). It counts as cell-based. The conditions noted are these: rated by scheme. The arrangement: key: (−) very weak activity found; (+) activity found; (++) high activity; (+++) excellent activity. From the text: Androgenic activity can be measured in various ways. Thus, the potency of androgens can be determined in vitro using the cytoplasmic androgen receptor from human breast tumor cells (MCF-7 cell line); see Bergink, E. W. et al, Comparison of the receptor binding properties of nandrolone and testosterone under in vitro and in vivo conditions, J. Steroid Biochem. 22, 831-836 (1985). […] The transactivative androgen activity of the compounds of the invention can be measured, e.g. in Chinese hamster ovary cells (CHO) transfected with the human androgen receptor (hAR), in combination with a mouse mammary tumor virus (MMTV), and luciferase receptor gene (incubation time 16 h, temperature 37° C.) and compared with the activity of 5α-dihydrotestosterone [according to the procedure described by Schoonen, W. G. E. J. et al, Analyt. Biochem. 261, 222-224 (1998)]. For the in vivo potency determination of androgens the classical Hershberger test can be used. In this test the androgenic (increase in prostate weight) and anabolic activities [increase of the musculus levator ani (MLA)] of a compound are tested in immature castrated rats after daily administration for 7 days; see Hershberger, L. G. et al, Myotrophic activity of 19-Nortestosterone and other steroids determined by modified levator ani muscle method, Proceedings of the society for experimental biology and medicine 83, 175-180 (1953). Additionally, the effect of an androgenic compound on LH suppression can be tested in mature castrated rats according to Kumar, N. et al, The biological activity of 7alpha-methyl-19-nortestosteione is not amplified in male reproductive tract as is that of testosterone, Endocrinology 130, 3677-3683 (1992).
(§1) The compounds according to the invention were tested for androgenic activity and for progestational activity (the procedures for which have been described above) and rated according to the following scheme: […]

Data set [2] has as its target T2, human progesterone receptor B (hPRB) (Homo sapiens, UniProt P06401).
T2 construct: expressed in transfected cells; host or cells: CHO (Chinese hamster ovary) cells
T2 sequence (P06401 1-933): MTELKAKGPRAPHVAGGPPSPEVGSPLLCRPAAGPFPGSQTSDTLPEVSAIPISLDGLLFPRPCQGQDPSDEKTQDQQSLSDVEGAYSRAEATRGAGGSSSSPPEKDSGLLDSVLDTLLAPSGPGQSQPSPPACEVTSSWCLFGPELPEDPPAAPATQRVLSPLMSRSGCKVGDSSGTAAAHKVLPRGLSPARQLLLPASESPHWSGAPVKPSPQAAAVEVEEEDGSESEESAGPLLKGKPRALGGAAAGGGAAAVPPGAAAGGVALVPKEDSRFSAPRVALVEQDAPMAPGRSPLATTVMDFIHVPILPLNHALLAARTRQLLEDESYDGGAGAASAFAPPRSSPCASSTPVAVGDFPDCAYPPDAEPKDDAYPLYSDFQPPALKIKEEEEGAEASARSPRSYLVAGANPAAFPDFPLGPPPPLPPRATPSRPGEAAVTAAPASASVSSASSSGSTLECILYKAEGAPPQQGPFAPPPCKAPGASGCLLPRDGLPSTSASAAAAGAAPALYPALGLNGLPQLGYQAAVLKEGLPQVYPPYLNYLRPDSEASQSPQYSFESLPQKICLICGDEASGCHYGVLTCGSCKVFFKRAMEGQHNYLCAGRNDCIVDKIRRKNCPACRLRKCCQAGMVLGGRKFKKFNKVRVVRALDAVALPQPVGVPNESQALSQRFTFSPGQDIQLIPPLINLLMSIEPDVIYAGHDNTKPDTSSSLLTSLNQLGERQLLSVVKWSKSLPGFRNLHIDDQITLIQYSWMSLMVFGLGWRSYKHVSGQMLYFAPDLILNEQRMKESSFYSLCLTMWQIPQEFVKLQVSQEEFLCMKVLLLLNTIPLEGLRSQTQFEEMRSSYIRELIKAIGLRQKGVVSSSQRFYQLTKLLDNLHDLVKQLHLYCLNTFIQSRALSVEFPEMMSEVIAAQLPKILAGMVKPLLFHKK
The experiment in a line: Progestational activity (transactivation in CHO cells transfected with hPRB, MMTV-luciferase, compared with (16α)-16-ethyl-21-hydroxy-19-norpregn-4-ene-3,20-dione). In kind it is cell-based. Conditions: rated by scheme. The arrangement: key: (−) very weak activity found; (+) activity found; (++) high activity; (+++) excellent activity. As for the experimental part: The transactivative progestagenic activity of the compounds of the invention can be measured, e.g. in Chinese hamster ovary cells (CHO) transfected with the human progesterone receptor B (hPRB), in combination with a mouse mammary tumor virus (MMTV), and luciferase receptor gene (incubation time 16 h, temperature 37° C.) and compared with the activity of (16α)-16-ethyl-21-hydroxy-19-norpregn-4-ene-3,20-dione [according to the procedure described by Schoonen, W. G. E. J. et al, Analyt. Biochem. 261, 222-224 (1998)].
as §1

In the case of `C[C@H]1C=C2[C@@H]3CCC4=CC(=O)CC[C@@H]4[C@H]3CC[C@]2(C)[C@H]1O` [Example 6b, (16β,17β)-17-hydroxy-16-methylestra-4,14-dien-3-one], in data set [1], the Androgenic activity entry is listed as “++”. In addition, the Progestational activity result in data set [2] was “+”.
`CCC1=C2[C@@H]3[C@H](CC)CC4=CC(=O)CC[C@@H]4[C@H]3CC[C@]2(C)[C@@H](O)C1` [Example 4, (7α,17β)-7,15-Diethyl-17-hydroxyestra-4,14-dien-3-one]: in data set [1], the Androgenic activity result is “+”. In addition, the Progestational activity result in data set [2] is “+”.
Turning to `CC1=C2[C@H]3[C@H](CC[C@]2(C)[C@@H](O)C1)[C@H]1CCC(=O)C=C1C[C@H]3C` [Example 1, (7α,17β)-17-Hydroxy-7,15-dimethylestra-4,14-dien-3-one], the melting point lay within 164 to 167 °C. Besides, the Androgenic activity entry in data set [1] was “++”. In data set [2], the Progestational activity entry is on record as “++”.
Consider `CC[C@@H]1CC2=CC(=O)CC[C@@H]2[C@H]2CC[C@@]3(C)C(=C[C@@H](C)[C@@H]3O)[C@H]12` [Example 7b, (7α,16α,17β)-17-Hydroxy-7-ethyl-16-metliylestra-4,14-dien-3-one], for which the Androgenic activity entry in data set [1] is reported as “++”. In addition, the Progestational activity result in data set [2] is “+”.
On the same counts, the results for `CC[C@@H]1CC2=C(CCC(=O)C2)[C@H]2CC[C@@]3(C)C(=C(C)C[C@@H]3O)[C@H]12` [Example 8a, (7α,17β)-7-Ethyl-17-hydroxy-15-methylestra-5(10),14-dien-3-one] are “Prodrug” and “Prodrug”.
In the case of `C[C@@H]1C=C2[C@H]3[C@H](CC[C@]2(C)[C@H]1O)[C@H]1CCC(=O)C=C1C[C@H]3C` [Example 7a, (7α,16α,17β)-17-Hydroxy-7,16-dimethylestra-4,14-dien-3-one], the Androgenic activity result in data set [1] was “++”. The Progestational activity entry in data set [2] is “+”.
`CC[C@@H]1CC2=CC(=O)CC[C@@H]2[C@H]2CC[C@@]3(C)C(=C(C)C[C@@H]3O)[C@H]12` [Example 3, (7α,17β)-7-Ethyl-17-hydroxy-15-methylestra-4,14-dien-3-one]: the Androgenic activity result in data set [1] is given as “++”. Besides, the Progestational activity result in data set [2] was “+”.
On to `C=C[C@@H]1CC2=CC(=O)CC[C@@H]2[C@H]2CC[C@@]3(C)C(=C[C@@H](C)[C@@H]3O)[C@@H]21` [Example 7c, (7α,16α,17β)-17-Hydroxy-16-methyl-7-vinylestra-4,14-dien-3-one], for which the Androgenic activity entry in data set [1] was “++”. Moreover, the Progestational activity result in data set [2] is recorded as “+”.
In the case of `CC[C@@H]1CC2=C(CC[C@@H](O)C2)[C@H]2CC[C@@]3(C)C(=C(C)C[C@@H]3O)[C@H]12` [Example 8b, (3α,7α,17β)-7-ethyl-15-methylestra-5(10),14-diene-3,17-diol], the Androgenic activity entry in data set [1] is reported as “Prodrug”. Moreover, the Progestational activity entry in data set [2] is given as “Prodrug”.
For the compound `C[C@@H]1C=C2[C@@H]3CCC4=CC(=O)CC[C@@H]4[C@H]3CC[C@]2(C)[C@H]1O` [Example 6a, (16α,17β)-17-Hydroxy-16-methylestra-4,14-dien-3-one], in data set [1], the Androgenic activity result is “+”. Besides, the Progestational activity entry in data set [2] is on record as “+”.
On to `CC[C@@H]1CC2=C(CC[C@H](O)C2)[C@H]2CC[C@@]3(C)C(=C(C)C[C@@H]3O)[C@H]12` [Example 8c, (3β,7α,17β)-7-ethyl-15-methylestra-5 (10),14-diene-3,17-diol], for which the Androgenic activity result in data set [1] is on record as “Prodrug”. For the same compound, the Progestational activity entry in data set [2] is listed as “Prodrug”.
With `CC[C@]12CC[C@H]3[C@H](C1=C(C)C[C@@H]2O)[C@H](C)CC1=CC(=O)CC[C@@H]13` [Example 5, (7α,17β)-13-Ethyl-17-hydroxy-7,15-dimethylgona-4,14-dien-3-one], the Androgenic activity entry in data set [1] is recorded as “++”. Besides, the Progestational activity entry in data set [2] was “+”.
As to `CCC1=C2[C@H]3[C@H](CC[C@]2(C)[C@@H](O)C1)[C@H]1CCC(=O)C=C1C[C@H]3C` [Example 2, (7α,17β)-15-Ethyl-17-hydroxy-7-methylestra-4,14-dien-3-one], in data set [1], the Androgenic activity result is on record as “+”. Moreover, the Progestational activity result in data set [2] is listed as “++”.
For `C[C@@H]1CC2=CC(=O)CC[C@@H]2[C@H]2CC[C@@]3(C)C(=CC[C@@H]3O)[C@@H]21` [Reference compound (Segaloff comp.*), (7α,17β)-7-methyl-17-hydroxyestra-4,14-dien-3-one, reference compound], in data set [1], the Androgenic activity entry is listed as “+++”. Besides, the Progestational activity result in data set [2] was “−”.
